Measurements: publication PMC7496508, “Modular Medical Imaging Agents Based on Azide–Alkyne Huisgen Cycloadditions: Synthesis and Pre‐Clinical Evaluation of ^18F‐Labeled PSMA‐Tracers for Prostate Cancer Imaging” (Chemistry (Weinheim an Der Bergstrasse, Germany), 2020)
“And” between values parts separate entries of the source, which are not always exact repeats. Equal values may be shown once.

Tests used:
Type in all cases: in vivo, Balb/c nude mice
PC3 (PSMA-) xenografts [1] = experiment: ex vivo organ distribution, PC3 xenograft mice; settings: dissected after PET scan
Experimental: All groups were evaluated by visual assessment of the PET image and the percentage injected dose per gram (%ID g^−1).
(§1) The animal experiments were all performed according to the ethical guidelines and approved by the local animal welfare committee of the University of Groningen (IvD number 15166-06-001. All animals were caged separately in individually ventilated cages.
(§2) 7-12 week old immune deficient Balb/c nude mice were inoculated with 200 µL of a 1:1 suspension of medium containing approximately 4 x10^6 LNCaP cells (PSMA positive cells) or 5 x 10^6 PC3 cells (PSMA-negative cells) in RPMI-1640, and Matrigel Basement Membrane Matrix High concentration. The cells were subcutaneously inoculated on the right shoulder.
After 3 to 5 weeks for LNCaP-xenografts, 2-3 weeks for PC3-xenografts or when a tumor size of 1cm3 was reached, the animals were transported to the PET imaging facility. […]
(§3) Animals were anesthetized at 5 % isoflurane and maintained under 2 % isoflurane enriched with O2. The dynamic PET scan was started within 5 min after tracer injection with an acquisition time of 90 min. The static scan was performed 60 min after tracer injection with an acquisition time of 30 min.
(§4) 7.2. Organ distribution and Metabolite analysis.
After sacrificing the animals, the organs were dissected and measured in a γ-counter. The obtained CPM’s were normalized to %ID/g (Table shown in main text). […]
(§5) In order to check for the significant differences, we also checked for the Cohen’s d, a measurement to determine the effect size. It is calculated on the following formula:
(§6) Cohen′sD = Mean1− Mean2 . […]

PC3 (PSMA-) xenografts [2] = experiment: PET image quantification of organ distribution (SUVmeanBW), PC3 xenograft mice
Experimental: The in vivo imaging potential of [^18F]PSMA‐MIC01 was evaluated using a murine animal model (see Supporting Information for experimental details).65 This was performed in a procedure that involved the study of the tumor uptake, binding specificity and comparison to [^68Ga]PSMA‐11. Tumor uptake of [^18F]PSMA‐MIC01 was assessed by performing a 90 min dynamic PET scan.
as §1, §2
After 3 to 5 weeks for LNCaP-xenografts, 2-3 weeks for PC3-xenografts or when a tumor size of 1cm3 was reached, the animals were transported to the PET imaging facility. For the […]
as §3, with “prepared and 100 µL were injected via penile vein injection 30 min prior to the tracer injection. Animals were” for “Animals were”, “30 min. […]” for “30 min.”
as §5, §6

[3] = metabolite analysis of plasma and urine by TLC; settings: PC3- or LNCaP-xenograft animals
Excerpt: as §4
After sacrificing the animals, the organs were dissected and measured in a γ-counter. The obtained CPM’s were normalized to %ID/g (Table shown in main text). For the metabolite analysis, urine and plasma samples were pipetted onto a TLC plate and run in a solution of 10 % MeCN in H2O and read out in an Amersham Typhoon (GE).Additionally to […]
metabolite analysis of two article, the image quantification based on the standardized different animals bearing a uptake value (SUV ) was performed. The obtained data PC3- or a LNCaP-xenograft. meanBW While in Plasma, no are represented in the following Table S6. Here, we show the metabolite were formed, the […]
results obtained by image quantification of the 4 different conclusive. groups. Comparison of tumor uptake in PSMA-expressing
LNCaP xenografts of (1) [68Ga]PSMA-11 and (2) [18F]PSMA-MIC01 (the same animals). (3) the PSMA-negative PC3 xenograft. (4) Confirmation of binding specificity of radiotracer [18F]PSMA-MIC01, by blocking PSMA in LNCaP-xenografts prior to radiotracer injection] using the potent PSMA-inhibitor 2-PMPA.
as §5, §6
(1 picture or pasted object on this page, not shown here)

ex vivo uptake bone (PC3 (PSMA-) xenografts [1]): 0.5±0.2 %ID g^−1 | ex vivo uptake brain (PC3 (PSMA-) xenografts [1]): 0.2±0.1 %ID g^−1 | ex vivo uptake heart (PC3 (PSMA-) xenografts [1]): 1.0±0.6 %ID g^−1 | ex vivo uptake kidney (PC3 (PSMA-) xenografts [1]): 39.8±28.8 %ID g^−1 | ex vivo uptake large intestine (PC3 (PSMA-) xenografts [1]): 1.4±0.5 %ID g^−1 | ex vivo uptake liver (PC3 (PSMA-) xenografts [1]): 9.4±2.9 %ID g^−1 | ex vivo uptake lungs (PC3 (PSMA-) xenografts [1]): 2.1±1.1 %ID g^−1 | ex vivo uptake muscles (PC3 (PSMA-) xenografts [1]): 0.6±0.3 %ID g^−1 | ex vivo uptake pancreas (PC3 (PSMA-) xenografts [1]): 0.8±0.3 %ID g^−1 | ex vivo uptake plasma (PC3 (PSMA-) xenografts [1]): 6.0±3.5 %ID g^−1 | ex vivo uptake salivary glands (PC3 (PSMA-) xenografts [1]): 1.1±0.6 %ID g^−1 | ex vivo uptake small intestine (PC3 (PSMA-) xenografts [1]): 1.3±0.6 %ID g^−1 | ex vivo uptake spleen (PC3 (PSMA-) xenografts [1]): 3.1±1.4 %ID g^−1 | ex vivo uptake stomach (PC3 (PSMA-) xenografts [1]): 1.2±0.6 %ID g^−1 | ex vivo uptake tumor (PC3 (PSMA-) xenografts [1]): 3.0±1.8 %ID g^−1 and 3.0±1.7 %ID g^−1 | ex vivo uptake urine (PC3 (PSMA-) xenografts [1]): 184±260 %ID g^−1 | ex vivo uptake whole blood (PC3 (PSMA-) xenografts [1]): 3.4±1.8 %ID g^−1 | SUVmeanBW Bladder (PC3 (PSMA-) xenografts [2]): 3.9 ± 0.4 | SUVmeanBW Brain (PC3 (PSMA-) xenografts [2]): 0.2 ± 0.1 | SUVmeanBW Heart (PC3 (PSMA-) xenografts [2]): 0.7 ± 0.2 | SUVmeanBW Kidney (PC3 (PSMA-) xenografts [2]): 5.1 ± 1.9 | SUVmeanBW Liver (PC3 (PSMA-) xenografts [2]): 1.5 ± 0.5 | SUVmeanBW Muscle (PC3 (PSMA-) xenografts [2]): 0.3 ± 0.1 | SUVmeanBW Tumor (PC3 (PSMA-) xenografts [2]): 0.4 ± 0.2 | metabolites in plasma [3]: no
SMILES: O=C(O)CC[C@H](NC(=O)N[C@@H](CCCCNC(=O)c1ccc(-c2cn(CCOCCOCC[18F])nn2)cc1)C(=O)O)C(=O)O [[^18F]PSMA‐MIC01]
